Data on eight compounds can be found in patent US10150776B2, “Harringtonines salts in the crystalline state and their use for the purification of the corresponding drug substance” (priority 2013, dated 2018).

Test system in the first data set: not listed separately
In words: Solubility determination in water, semi-quantitative. To be noted: 25° C., semi-quantitative, read-out: Solubility in water (threshold). It counts as physicochemical. As to the method:
Solubility in water at 25° C. was measured semi-quantitatively at a threshold of 5 g per 100 mL. All the homoharringtonine salts described in the below examples, unless otherwise stated, are soluble at this threshold. Homoharringtonine base itself is soluble at a threshold lower than 0.1 g per mL
For the compound `COC(=O)C[C@](O)(CCCC(C)(C)O)C(=O)O[C@@H]1C(OC)=C[C@]23CCCN2CCc2cc4c(cc2[C@H]13)OCO4` [Homoharringtonine base, homoharringtonine], the solubility is under 100 mg/mL.

The same data set, now with this note: 25 °C.
`COC(=O)C[C@@](O)(CCCC(C)(C)O)C(=O)O[C@@H]1C(OC)=C[C@]23CCCN2CCc2cc4c(cc2[C@H]13)OCO4.O=C(O)C[C@H](O)C(=O)O` [Example 3, HOMOHARRINGTONINE HYDROGEN (2S)-MALATE] displayed a solubility of over 60 mg/mL.

In the next data set the test system is cancer.
Assay: not given
Further details: key: cytotoxic: CYTOTOXICITY is toxicity to tumor cells in culture; anticancer: ANTINEOPLASTIC or ANTICANCER iare the reserved terms for reportied clinical trials data. To be noted: in cancer area; terms defined in table footnote; cited from earlier work.
On to `COC(=O)C[C@](O)(CCC(C)(C)O)C(=O)O[C@@H]1C(OC)=C[C@]23CCCN2CCc2cc4c(cc2[C@H]13)OCO4` [Example 5a, harringtonine], for which the Activity entry was “anticancer”.
On to `COC(=O)CC(O)(CC(C)(C)O)C(=O)OC1C(OC)=CC23CCCN2CCc2cc4c(cc2C13)OCO4` (stereo not drawn) [Example 5c, norharringtonine], for which the Activity entry is on record as “none”.
On to `COC(=O)C[C@](O)(CCC(C)C)C(=O)O[C@@H]1C(OC)=C[C@]23CCCN2CCc2cc4c(cc2[C@H]13)OCO4` [Example 5d, deoxyharringtonine], for which the Activity result is reported as “anticancer”.
For the compound `COC(=O)CC(O)(CCCCC(C)(C)O)C(=O)OC1C(OC)=CC23CCCN2CCc2cc4c(cc2C13)OCO4` (stereo not drawn) [Example 5e, bishomoharringtonine], the Activity entry is “none”.
As to `COC(=O)[C@@H](O)[C@](O)(CCC(C)C)C(=O)O[C@@H]1C(OC)=C[C@]23CCCN2CCc2cc4c(cc2[C@H]13)OCO4` [Example 5f, isoharringtonine], the Activity result was “none”.
With `COC(=O)C[C@](O)(CCCC(C)(C)O)C(=O)O[C@@H]1C(OC)=C[C@]23CCCN2CCc2cc4c(cc2[C@H]13)OCO4` [Homoharringtonine base, homoharringtonine], the Activity entry is “anticancer”.
As for neoharringtonine [Example 5g], the Activity result is given as “cytotoxic”.

By solubility is commonly meant the concentration that dissolves in the medium under given conditions.
